According to PubChem BioAssay AID504473 (NMMLSC, 2011):
The source made the active and inactive calls.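 The calls were made as follows: active = GFP ratio to DMSO above 1.5 or below 0.66; inactive = the rest.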

What was measured:
Test in all cases: expression changes of rapamycin-responsive GFP fusion proteins, S. cerevisiae, GFP-tagged clone panel, flow cytometry (AID 504473);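 also: median GFP fluorescence of the cells measured by high-throughput flow cytometry; test concentration not given here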
YGL147C = settings: S. cerevisiae GFP-tagged strains, 3 h
YFR053C = settings: S. cerevisiae GFP-tagged strains, 3 h
YKR039W = settings: S. cerevisiae GFP-tagged strains, 3 h
YLR367W = settings: S. cerevisiae GFP-tagged strains, 3 h
YLR287C-A = settings: S. cerevisiae GFP-tagged strains, 3 h
[1] = molecular target: General amino acid permease AGP1 (Saccharomyces cerevisiae S288c) (UniProt P25376); settings: S. cerevisiae GFP-tagged strains, 3 h, YCL025C
YIL069C = settings: S. cerevisiae GFP-tagged strains, 3 h
YKL119C = settings: S. cerevisiae GFP-tagged strains, 3 h
YCR005C = settings: S. cerevisiae GFP-tagged strains, 3 h
YNR001C = settings: S. cerevisiae GFP-tagged strains, 3 h
YPR132W = settings: S. cerevisiae GFP-tagged strains, 3 h
YBR208C = settings: S. cerevisiae GFP-tagged strains, 3 h
YGL062W = settings: S. cerevisiae GFP-tagged strains, 3 h
YGR034W = settings: S. cerevisiae GFP-tagged strains, 3 h
YML128C = settings: S. cerevisiae GFP-tagged strains, 3 h
YJR148W = settings: S. cerevisiae GFP-tagged strains, 3 h
YOR063W = settings: S. cerevisiae GFP-tagged strains, 3 h
YLL026W = settings: S. cerevisiae GFP-tagged strains, 3 h
YKL086W = settings: S. cerevisiae GFP-tagged strains, 3 h
YCL064C = settings: S. cerevisiae GFP-tagged strains, 3 h
YJL144W = settings: S. cerevisiae GFP-tagged strains, 3 h
YPL150W = settings: S. cerevisiae GFP-tagged strains, 3 h
YAL060W = settings: S. cerevisiae GFP-tagged strains, 3 h
YEL071W = settings: S. cerevisiae GFP-tagged strains, 3 h
YLL039C = settings: S. cerevisiae GFP-tagged strains, 3 h
YML063W = settings: S. cerevisiae GFP-tagged strains, 3 h
YIL051C = settings: S. cerevisiae GFP-tagged strains, 3 h
YMR120C = settings: S. cerevisiae GFP-tagged strains, 3 h
YCR002C = settings: S. cerevisiae GFP-tagged strains, 3 h
YER156C = settings: S. cerevisiae GFP-tagged strains, 3 h
YDR382W = settings: S. cerevisiae GFP-tagged strains, 3 h
YHR144C = settings: S. cerevisiae GFP-tagged strains, 3 h
YLR109W = settings: S. cerevisiae GFP-tagged strains, 3 h
YIL066C = settings: S. cerevisiae GFP-tagged strains, 3 h
YAL061W = settings: S. cerevisiae GFP-tagged strains, 3 h
YEL007W = settings: S. cerevisiae GFP-tagged strains, 3 h
YPL131W = settings: S. cerevisiae GFP-tagged strains, 3 h
YMR251W-A = settings: S. cerevisiae GFP-tagged strains, 3 h
YFR031C-A = settings: S. cerevisiae GFP-tagged strains, 3 h
YER117W = settings: S. cerevisiae GFP-tagged strains, 3 h
YEL063C = settings: S. cerevisiae GFP-tagged strains, 3 h
YLR142W = settings: S. cerevisiae GFP-tagged strains, 3 h
YHR141C = settings: S. cerevisiae GFP-tagged strains, 3 h
YOR173W = settings: S. cerevisiae GFP-tagged strains, 3 h
YGL036W = settings: S. cerevisiae GFP-tagged strains, 3 h
YJL056C = settings: S. cerevisiae GFP-tagged strains, 3 h
YLR058C = settings: S. cerevisiae GFP-tagged strains, 3 h
YMR105C = settings: S. cerevisiae GFP-tagged strains, 3 h
YML026C = settings: S. cerevisiae GFP-tagged strains, 3 h
YHR087W = settings: S. cerevisiae GFP-tagged strains, 3 h
YIL052C = settings: S. cerevisiae GFP-tagged strains, 3 h
YLR185W = settings: S. cerevisiae GFP-tagged strains, 3 h
YMR307W = settings: S. cerevisiae GFP-tagged strains, 3 h
YBR139W = settings: S. cerevisiae GFP-tagged strains, 3 h
YML034W = settings: S. cerevisiae GFP-tagged strains, 3 h
YPR145W = settings: S. cerevisiae GFP-tagged strains, 3 h
YNL214W = settings: S. cerevisiae GFP-tagged strains, 3 h
YML004C = settings: S. cerevisiae GFP-tagged strains, 3 h
YHR203C = settings: S. cerevisiae GFP-tagged strains, 3 h
YNL112W = settings: S. cerevisiae GFP-tagged strains, 3 h
YDR453C = settings: S. cerevisiae GFP-tagged strains, 3 h
YDL130W = settings: S. cerevisiae GFP-tagged strains, 3 h
YOL052C-A = settings: S. cerevisiae GFP-tagged strains, 3 h
YBL087C = settings: S. cerevisiae GFP-tagged strains, 3 h
YPL111W = settings: S. cerevisiae GFP-tagged strains, 3 h
YLR237W = settings: S. cerevisiae GFP-tagged strains, 3 h
YNL142W = settings: S. cerevisiae GFP-tagged strains, 3 h
YPL220W = settings: S. cerevisiae GFP-tagged strains, 3 h
YDL204W = settings: S. cerevisiae GFP-tagged strains, 3 h
YKL103C = settings: S. cerevisiae GFP-tagged strains, 3 h
YGR121C = settings: S. cerevisiae GFP-tagged strains, 3 h
YOR136W = settings: S. cerevisiae GFP-tagged strains, 3 h
YGR088W = settings: S. cerevisiae GFP-tagged strains, 3 h
YNL068C = settings: S. cerevisiae GFP-tagged strains, 3 h
YKR093W = settings: S. cerevisiae GFP-tagged strains, 3 h
YOR375C = settings: S. cerevisiae GFP-tagged strains, 3 h
YER081W = settings: S. cerevisiae GFP-tagged strains, 3 h
YIL043C = settings: S. cerevisiae GFP-tagged strains, 3 h
YOR038C = settings: S. cerevisiae GFP-tagged strains, 3 h
YEL060C = settings: S. cerevisiae GFP-tagged strains, 3 h
YBR072W = settings: S. cerevisiae GFP-tagged strains, 3 h
YGL135W = settings: S. cerevisiae GFP-tagged strains, 3 h
YDR399W = settings: S. cerevisiae GFP-tagged strains, 3 h
YOR182C = settings: S. cerevisiae GFP-tagged strains, 3 h
YDR070C = settings: S. cerevisiae GFP-tagged strains, 3 h
YHR018C = settings: S. cerevisiae GFP-tagged strains, 3 h
YPR184W = settings: S. cerevisiae GFP-tagged strains, 3 h
YGR019W = settings: S. cerevisiae GFP-tagged strains, 3 h
YDL205C = settings: S. cerevisiae GFP-tagged strains, 3 h
YBR248C = settings: S. cerevisiae GFP-tagged strains, 3 h
YER151C = settings: S. cerevisiae GFP-tagged strains, 3 h
YNL015W = settings: S. cerevisiae GFP-tagged strains, 3 h
YOR371C = settings: S. cerevisiae GFP-tagged strains, 3 h
YKR094C = settings: S. cerevisiae GFP-tagged strains, 3 h
YHL021C = settings: S. cerevisiae GFP-tagged strains, 3 h
YPL265W = settings: S. cerevisiae GFP-tagged strains, 3 h

Sequence of General amino acid permease AGP1 (Saccharomyces cerevisiae S288c) (P25376 whole entry, looked up): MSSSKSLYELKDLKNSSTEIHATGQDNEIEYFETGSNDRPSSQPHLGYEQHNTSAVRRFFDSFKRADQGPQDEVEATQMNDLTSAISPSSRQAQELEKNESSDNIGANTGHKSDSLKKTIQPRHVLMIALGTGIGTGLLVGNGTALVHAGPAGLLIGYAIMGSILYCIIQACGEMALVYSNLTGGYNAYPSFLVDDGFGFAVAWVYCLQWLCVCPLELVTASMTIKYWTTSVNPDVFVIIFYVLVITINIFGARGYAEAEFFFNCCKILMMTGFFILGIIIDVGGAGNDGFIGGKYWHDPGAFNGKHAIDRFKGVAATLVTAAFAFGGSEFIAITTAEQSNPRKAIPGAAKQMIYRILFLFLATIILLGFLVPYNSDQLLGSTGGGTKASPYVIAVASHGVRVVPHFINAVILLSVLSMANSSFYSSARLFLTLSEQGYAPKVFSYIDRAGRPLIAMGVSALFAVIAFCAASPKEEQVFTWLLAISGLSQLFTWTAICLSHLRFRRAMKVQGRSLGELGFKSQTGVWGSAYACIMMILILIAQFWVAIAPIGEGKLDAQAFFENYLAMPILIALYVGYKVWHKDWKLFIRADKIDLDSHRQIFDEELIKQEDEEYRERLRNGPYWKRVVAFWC

CNc1nc(N)c([N+](=O)[O-])c(Nc2cccc(F)c2)n1
GFP ratio to DMSO (YGL147C): 0.799 (inactive) | GFP ratio to DMSO (YFR053C): 1.46 (inactive) | GFP ratio to DMSO (YKR039W): 4.91 | GFP ratio to DMSO (YLR367W): 0.896 (inactive) | GFP ratio to DMSO (YLR287C-A): 0.753 (inactive) | GFP ratio to DMSO [1]: 1.69 | GFP ratio to DMSO (YIL069C): 0.764 (inactive) | GFP ratio to DMSO (YKL119C): 0.959 (inactive) | GFP ratio to DMSO (YCR005C): 4.96 | GFP ratio to DMSO (YNR001C): 1.57 | GFP ratio to DMSO (YPR132W): 0.841 (inactive) | GFP ratio to DMSO (YBR208C): 2.34 | GFP ratio to DMSO (YGL062W): 2.1 | GFP ratio to DMSO (YGR034W): 0.814 (inactive) | GFP ratio to DMSO (YML128C): 1.68 | GFP ratio to DMSO (YJR148W): 3.13 | GFP ratio to DMSO (YOR063W): 0.919 (inactive) | GFP ratio to DMSO (YLL026W): 1.75 | GFP ratio to DMSO (YKL086W): 1.17 (inactive) | GFP ratio to DMSO (YCL064C): 1.15 (inactive) | GFP ratio to DMSO (YJL144W): 1.39 (inactive) | GFP ratio to DMSO (YPL150W): 0.959 (inactive) | GFP ratio to DMSO (YAL060W): 2.27 | GFP ratio to DMSO (YEL071W): 2.83 | GFP ratio to DMSO (YLL039C): 1.49 (inactive) | GFP ratio to DMSO (YML063W): 0.897 (inactive) | GFP ratio to DMSO (YIL051C): 1.3 (inactive) | GFP ratio to DMSO (YMR120C): 0.686 (inactive) | GFP ratio to DMSO (YCR002C): 0.939 (inactive) | GFP ratio to DMSO (YER156C): 1.08 (inactive) | GFP ratio to DMSO (YDR382W): 0.981 (inactive) | GFP ratio to DMSO (YHR144C): 0.778 (inactive) | GFP ratio to DMSO (YLR109W): 1.39 (inactive) | GFP ratio to DMSO (YIL066C): 1.04 (inactive) | GFP ratio to DMSO (YAL061W): 1.57 | GFP ratio to DMSO (YEL007W): 0.993 (inactive) | GFP ratio to DMSO (YPL131W): 0.93 (inactive) | GFP ratio to DMSO (YMR251W-A): 1.64 | GFP ratio to DMSO (YFR031C-A): 0.845 (inactive) | GFP ratio to DMSO (YER117W): 0.434 | GFP ratio to DMSO (YEL063C): 1.23 (inactive) | GFP ratio to DMSO (YLR142W): 0.857 (inactive) | GFP ratio to DMSO (YHR141C): 0.925 (inactive) | GFP ratio to DMSO (YOR173W): 1.45 (inactive) | GFP ratio to DMSO (YGL036W): 0.845 (inactive) | GFP ratio to DMSO (YJL056C): 0.886 (inactive) | GFP ratio to DMSO (YLR058C): 1.02 (inactive) | GFP ratio to DMSO (YMR105C): 1.72 | GFP ratio to DMSO (YML026C): 0.557 | GFP ratio to DMSO (YHR087W): 1.64 | GFP ratio to DMSO (YIL052C): 0.769 (inactive) | GFP ratio to DMSO (YLR185W): 0.893 (inactive) | GFP ratio to DMSO (YMR307W): 0.845 (inactive) | GFP ratio to DMSO (YBR139W): 1.12 (inactive) | GFP ratio to DMSO (YML034W): 0.944 (inactive) | GFP ratio to DMSO (YPR145W): 1.98 | GFP ratio to DMSO (YNL214W): 0.945 (inactive) | GFP ratio to DMSO (YML004C): 1.28 (inactive) | GFP ratio to DMSO (YHR203C): 0.857 (inactive) | GFP ratio to DMSO (YNL112W): 0.894 (inactive) | GFP ratio to DMSO (YDR453C): 1.5 (inactive) | GFP ratio to DMSO (YDL130W): 0.917 (inactive) | GFP ratio to DMSO (YOL052C-A): 2.48 | GFP ratio to DMSO (YBL087C): 0.567 | GFP ratio to DMSO (YPL111W): 2.48 | GFP ratio to DMSO (YLR237W): 0.775 (inactive) | GFP ratio to DMSO (YNL142W): 9.4 | GFP ratio to DMSO (YPL220W): 1.04 (inactive) | GFP ratio to DMSO (YDL204W): 1.33 (inactive) | GFP ratio to DMSO (YKL103C): 2.2 | GFP ratio to DMSO (YGR121C): 1.38 (inactive) | GFP ratio to DMSO (YOR136W): 1.43 (inactive) | GFP ratio to DMSO (YGR088W): 1.71 | GFP ratio to DMSO (YNL068C): 1.09 (inactive) | GFP ratio to DMSO (YKR093W): 4.31 | GFP ratio to DMSO (YOR375C): 1.83 | GFP ratio to DMSO (YER081W): 1.07 (inactive) | GFP ratio to DMSO (YIL043C): 1.04 (inactive) | GFP ratio to DMSO (YOR038C): 1.15 (inactive) | GFP ratio to DMSO (YEL060C): 1.88 | GFP ratio to DMSO (YBR072W): 1.53 | GFP ratio to DMSO (YGL135W): 0.899 (inactive) | GFP ratio to DMSO (YDR399W): 0.957 (inactive) | GFP ratio to DMSO (YOR182C): 0.657 (inactive) | GFP ratio to DMSO (YDR070C): 2.45 | GFP ratio to DMSO (YHR018C): 1.14 (inactive) | GFP ratio to DMSO (YPR184W): 1.61 | GFP ratio to DMSO (YGR019W): 1.42 (inactive) | GFP ratio to DMSO (YDL205C): 0.958 (inactive) | GFP ratio to DMSO (YBR248C): 1.03 (inactive) | GFP ratio to DMSO (YER151C): 1.03 (inactive) | GFP ratio to DMSO (YNL015W): 1.62 | GFP ratio to DMSO (YOR371C): 0.944 (inactive) | GFP ratio to DMSO (YKR094C): 0.898 (inactive) | GFP ratio to DMSO (YHL021C): 1.99 | GFP ratio to DMSO (YPL265W): 1.93
